Patent US20250099448A1, “HETEROCYCLIC COMPOUNDS” (Hoffmann-La Roche Inc., priority 2022, published 2025)

What follows are molecules tested against T1, MAGL protein (Homo sapiens, UniProt Q99685) (assay: 2-AG assay: MAGL inhibitory activity by hydrolysis of 2-arachidonoylglycerol to arachidonic acid, followed by mass spectrometry). Details: 8 μM 2-arachidonoylglycerol, 15 min preincubation, 30 min reaction at RT, RapidFire MS readout.
T1 sequence (Q99685 1-303): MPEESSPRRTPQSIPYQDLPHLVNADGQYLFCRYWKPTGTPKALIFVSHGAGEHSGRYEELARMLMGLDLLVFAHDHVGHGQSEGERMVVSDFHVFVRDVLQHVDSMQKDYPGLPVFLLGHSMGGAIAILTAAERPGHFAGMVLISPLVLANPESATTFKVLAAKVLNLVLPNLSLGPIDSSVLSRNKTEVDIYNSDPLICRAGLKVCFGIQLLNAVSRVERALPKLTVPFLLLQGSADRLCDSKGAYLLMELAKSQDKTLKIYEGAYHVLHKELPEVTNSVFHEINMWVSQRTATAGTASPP
Type: biochemical
Protocol: Compounds of formula (I) were profiled for MAGL inhibitory activity by determining the enzymatic activity by following the hydrolysis of the natural substrate 2-arachidonoylglycerol (2-AG) resulting in arachidonic acid, which can be followed by mass spectrometry. This assay is hereinafter abbreviated “2-AG assay”. The 2-AG assay was carried out in 384 well polypropylene assay plates. Compound dilutions were made in 100% DMSO in a polypropylene plate in 3-fold dilution steps to give a final concentration range in the assay from 12.5 μM to […]. Compound dilutions were added to MAGL protein in assay buffer (50 mM TRIS, 1 mM EDTA, 0.01% (v/v) Tween-20, 2.5% (v/v) DMSO). After shaking, the plate was incubated for 15 min at RT. To start the reaction, 2-arachidonoylglycerol in assay buffer was added. The final concentrations in the assay was […] for MAGL protein and 8 μM 2-arachidonoylglyerol. After shaking and 30 min incubation at RT, the reaction was quenched by the addition of two assay volumes of acetonitrile containing 4 μM of d8-arachidonic acid. The amount of arachidonic acid formed was traced by an online SPE system (Agilent Rapidfire) coupled to a triple quadrupole mass spectrometer. A C18 SPE cartridge (Agilent G9205A) was used in an acetonitrile/water liquid setup. The mass spectrometer was operated in negative electrospray mode following the mass transitions 303.1→259.1 for arachidonic acid and 311.1→267.0 for d8-arachidonic acid. The activity of the compounds was calculated based on the ratio of intensities [arachidonic acid/d8-arachidonic acid].

| SMILES | IC50 [nM] |
| --- | --- |
| O=C(O)c1ccccc1-c1ccc(C2CN(C(=O)N3CC4(CC(c5nnc(C6CC6)[nH]5)C4)C3)C2)cc1 [Example 390, 2-[4-[1-[6-(5-cyclopropyl-4H-1,2,4-triazol-3-yl)-2-azaspiro[3.3]heptane-2-carbonyl]azetidin-3-yl]phenyl]benzoic Acid] | 1.06 |
| CCNC(=O)c1ccccc1-c1ccc(C2CN(C(=O)N3CC4(CC(c5nnc(C6CC6)[nH]5)C4)C3)C2)cc1 [Example 391, 2-[4-[1-[6-(5-cyclopropyl-4H-1,2,4-triazol-3-yl)-2-azaspiro[3.3]heptane-2-carbonyl]azetidin-3 yl]phenyl]-N-ethyl-benzamide] | 48.3 |
| O=C(N1CC(c2ccc(C3(C(=O)O)CC3)cc2)C1)N1CC2(CC(c3nnc(C4CC4)[nH]3)C2)C1 [Example 392, 1-[4 [1-[6-(5-cyclopropyl-4H-1,2,4-triazol-3-yl)-2-azaspiro[3.3]heptane-2-carbonyl]azetidin-3-yl]phenyl]cyclopropanecarboxylic Acid] | 6.59 |
| NC(=O)C1(c2ccc(C3CN(C(=O)N4CC5(CC(c6nnc(C7CC7)[nH]6)C5)C4)C3)cc2)CC1 [Example 393, 1-[4-[1-[6-(5-cyclopropyl-4H-1,2,4-triazol-3-yl)-2-azaspiro[3.3]heptane-2-carbonyl]azetidin-3-yl]phenyl]cyclopropanecarboaamide] | 1.2 |
| NC(=O)[C@@H]1CCCCN1c1ccc(C2CN(C(=O)N3CC4(CC(c5nnc(C6CC6)[nH]5)C4)C3)C2)cc1 [Example 394, (2S)-1-[4-[1-[6-(5-cyclopropyl-4H-1,2,4-triazol-3-yl)-2-azaspiro[3.3]heptane-2-carbonyl]azetidin-3 yl]phenyl]piperidine-2-carboxamide] | 1.49 |
| NC(=O)[C@@H]1CC(F)(F)CCN1c1ccc(C2CN(C(=O)N3CC4(CC(c5nnc(C6CC6)[nH]5)C4)C3)C2)cc1 [Example 395, (2S)-1-[4-[1-[6-(5-cyclopropyl-4H-1,2,4-triazol-3-yl)-2-azaspiro[3.3]heptane-2-carbonyl]azetidin-3-yl]phenyl]-4,4-difluoro-piperidine-2-carboxamide] | 1.28 |
| NC(=O)[C@H]1CC(F)(F)CCN1c1ccc(C2CN(C(=O)N3CC4(CC(c5nnc(C6CC6)[nH]5)C4)C3)C2)cc1 [Example 396, (2R)-1-[4-[1-[6-(5-cyclopropyl-4H-1,2,4-triazol-3-yl)-2-azaspiro[3.3]heptane-2-carbonyl]azetidin-3-yl]phenyl]-4,4-difluoro-piperidine-2-carboxamide] | 4.77 |
| NC(=O)[C@@H]1CCCN1c1ccc(C2CN(C(=O)N3CC4(CC(c5nnc(C6CC6)[nH]5)C4)C3)C2)cc1 [Example 397, (2S)-1-[4-[1-[6-(5-cyclopropyl-4H-1,2,4-triazol-3-yl)-2-azaspiro[3.3]heptane-2-carbonyl]azetidin-3-yl]phenyl]pyrrolidine-2-carboxamide] | 2.42 |
| NC(=O)[C@H]1CCCN1c1ccc(C2CN(C(=O)N3CC4(CC(c5nnc(C6CC6)[nH]5)C4)C3)C2)cc1 [Example 398, (2R)-1 [4-[1-[6-(5-cyclopropyl-4H-1,2,4-triazol-3-yl)-2-azaspiro[3.3]heptane-2-carbonyl]azetidin-3-yl]phenyl]pyrrolidine-2-carboxamide] | 2.4 |
| CS(=O)(=O)c1cc(Cl)ccc1CC1CC2(CCN(C(=O)N3CC4(CC(c5nnc(C6CC6)[nH]5)C4)C3)C2)C1 (centres unmarked) [Example 414, [2-(4-chloro-2-mesyl-benzyl)-6-azaspiro[3.4]octan-6-yl]-[6-(5-cyclopropyl-4H-1,2,4-triazol-3-yl)-2-azaspiro[3.3]heptan-2-yl]methanone] | 38.1 |
| CC(C)(O)Cn1nc(C2CCN(C(=O)N3CC4(CC(c5nnc(C6CC6)[nH]5)C4)C3)CC2)c2cc(Cl)ccc21 [Example 416, [4-[5-chloro-1-(2-hydroxy-2-methyl-propyl)indazol-3-yl]piperidino]-[6-(5-cyclopropyl-4H-1,2,4-triazol-3-yl)-2-azaspiro[3.3]heptan-2-yl]methanone] | 13.3 |
| CCOc1cc(C)nn1-c1ccc(C2CN(C(=O)N3CC4(CC(c5nnc(C6CC6)[nH]5)C4)C3)C2)cc1 [Example 449, [6-(5-cyclopropyl-4H-1,2,4-triazol-3-yl)-2-azaspiro[3.3]heptan-2-yl]-[3-[4-(5-ethoxy-3-methyl-pyrazol-1-yl)phenyl]azetidin-1-yl]methanone] | 0.45 |
| CS(=O)(=O)c1cnn(-c2ccc(C3CN(C(=O)N4CC5(CC(c6nnc(C7CC7)[nH]6)C5)C4)C3)cc2)c1 [Example 500, [6-(5-cyclopropyl-4H-1,2,4-triazol-3-yl)-2-azaspiro[3.3]heptan-2-yl]-[3-[4-(4-mesylpyrazol-1-yl)phenyl]azetidin-1-yl]methanone] | 9.48 |
| CCOc1cc(C)n(-c2ccc(C3CN(C(=O)N4CC5(CC(c6nnc(C7CC7)[nH]6)C5)C4)C3)cc2)n1 [Example 559, [6-(5-cyclopropyl-4H-1,2,4-triazol-3-yl)-2-azaspiro[3.3]heptan-2-yl]-[3-[4-(3-ethoxy-5-methyl-pyrazol-1-yl)phenyl]azetidin-1-yl]methanone] | 0.46 |
| N=S(=O)(c1ccc(COC2CN(C(=O)N3CC4(CC(c5nc(C6(O)CC6)n[nH]5)C4)C3)C2)c(F)c1)C(F)(F)F (centres unmarked) [Example 576, [3-[2-fluoro-4-(trifluoromethylsulfonimidoyl)benzyl]oxyazetidin-1-yl]-[6-[3-(1-hydroxycyclopropyl)-1H-1,2,4-triazol-5-yl]-2-azaspiro[3.3]heptan-2-yl]methanone] | 85.1 |
| CNc1nnc(-c2ccc(C3CN(C(=O)N4CC5(CC(c6nnc(C7CC7)[nH]6)C5)C4)C3)cc2)s1 [Example 600, [6-(5-cyclopropyl-4H-1,2,4-triazol-3-yl)-2-azaspiro[3.3]heptan-2-yl]-[3-[4-[5-(methylamino)-1,3,4-thiadiazol-2-yl]phenyl]azetidin-1-yl]methanone] | 4.25 |
| NC1(c2nnc(C3CC4(C3)CN(C(=O)N3CC5(CC(Cc6ccc(F)cc6C(F)(F)F)C5)C3)C4)[nH]2)CC1 [Example 636] | 0.03 |
| CS(=O)(=O)c1ccccc1-c1ccc(C2CN(C(=O)N3CC4(CC(c5nc(C6(O)CC6)n[nH]5)C4)C3)C2)cc1 [Example 781, [6-[3-(1-hydroxycyclopropyl)-1H-1,2,4-triazol-5-yl]-2-azaspiro[3.3]heptan-2-yl]-[3-[4-(2-mesylphenyl)phenyl]azetidin-1-yl]methanone] | 0.93 |

Continued, values first:

| IC50 [nM] | SMILES |
| --- | --- |
| 11.8 | N=S(=O)(c1ccc(C(F)(F)F)cc1)C1CCC2(CC1)CN(C(=O)N1CC3(CC(c4nc(C5CC5)n[nH]4)C3)C1)C2 (centres unmarked) [Example 429] |
| 8.88 | N=S(=O)(c1cccc(C(F)(F)F)c1)C1CCC2(CC1)CN(C(=O)N1CC3(CC(c4nc(C5CC5)n[nH]4)C3)C1)C2 (centres unmarked) [Example 456] |
| 67.8 | O=C(N1CC2(CC(c3nc(C4CC4)n[nH]3)C2)C1)C12CC(Nc3cnc(C(F)(F)F)cn3)(C1)C2 [Example 473, [6-(3-cyclopropyl-1H-1,2,4-triazol-5-yl)-2-azaspiro[3.3]heptan-2-yl]-[3-[[5-(trifluoromethyl)pyrazin-2-yl]amino]-1-bicyclo[1.1.1]pentanyl]methanone] |
| 0.17 | CS(=O)(=O)c1ccccc1-c1ccc(C2CN(C(=O)N3CC4(CC(c5nc(C6CC6)n[nH]5)C4)C3)C2)cc1 [Example 516, [6-(3-cyclopropyl-1H-1,2,4-triazol-5-yl)-2-azaspiro[3.3]heptan-2-yl]-[3-[4-(2-mesylphenyl)phenyl]azetidin-1-yl]methanone] |
| 12.3 | N=S(=O)(c1ccc(COC2CN(C(=O)N3CC4(CC(c5nc(C6CC6)n[nH]5)C4)C3)C2)c(F)c1)C(F)(F)F (centres unmarked) [Example 632, [6-(3-cyclopropyl-1H-1,2,4-triazol-5-yl)-2-azaspiro[3,3]heptan-2-yl]-[3-[2-fluoro-4-(trifluoromethylsulfonimidoyl)benzyl]oxyazetidin-1-yl]methanone] |
| 1500 | O=C(N1CC2(CC(c3nc(C4CC4)n[nH]3)C2)C1)N1CC2(CC(n3cnc(O)n3)C2)C1 [Example 648, [6-(3-cyclopropyl-1H-1,2,4-triazol-5-yl)-2-azaspiro[3.3]heptan-2-yl]-[6-(3-hydroxy-1,2,4-triazol-1-yl)-2-azaspiro[3.3]heptan-2-yl]methanone] |
| 42.2 | N#Cc1cc(C(F)(F)F)ncc1O[C@H]1CCC2(C1)CN(C(=O)N1CC3(CC(c4nc(C5(O)CC5)n[nH]4)C3)C1)C2 [Example 696] |
| 2.34 | CS(=N)(=O)c1cc(F)ccc1CC1CC2(C1)CN(C(=O)N1CC3(CC(c4nc(C5CC5)n[nH]4)C3)C1)C2 (centres unmarked) [Example 735, [6-(3-cyclopropyl-1H-1,2,4-triazol-5-yl)-2-azaspiro[3.3]heptan-2-yl]-[6-[4-fluoro-2-(methylsulfonimidoyl)benzyl]-2-azaspiro[3.3]heptan-2-yl]methanone] |
